{
  "source": "patent US12059469B2",
  "about": "“Compositions and methods for wound treatment” (priority 2017, dated 2024)",
  "origin": "cited, not measured here",
  "key": {"[1]": {"system": "Wnt/β-catenin-mediated transcription", "conditions": "through TNK 1 and 2 inhibition"}, "mouse ear punch wound": {"system": "mouse ear punch wound", "conditions": "topical application, dissolved in DMSO"}},
  "data": [
    {"smiles": "Oc1nc(-c2ccc(C(F)(F)F)cc2)nc2c1CSCC2", "note": "[XAV939, 3,5,7,8-Tetrahydro-2-[4-(trifluoromethyl)phenyl]-4H-thiopyrano[4,3-d]pyrimidin-4-one]", "values": [
      {"measurement": "Wnt/β-catenin-mediated transcription", "setting": "[1]", "value": "selectively inhibits"},
      {"measurement": "effect on CRE", "setting": "CRE", "value": "does not affect"},
      {"measurement": "effect on NF-κK", "setting": "NF-κK", "value": "does not affect"},
      {"measurement": "effect on TGF-β", "setting": "TGF-β", "value": "does not affect"},
      {"measurement": "fibrosis (scarring)", "setting": "mouse ear punch wound", "value": "reduced fibrosis"},
      {"measurement": "rate of wound closure", "setting": "mouse ear punch wound", "value": "significantly increased rate of wound closure"},
      {"measurement": "aqueous solubility", "value": "< 1000", "unit": "µg/mL"}
    ]}
  ]
}
